From ChEMBL document CHEMBL5236569, “Emodin lows NPC1L1-mediated cholesterol absorption as an uncompetitive inhibitor” (2022)
Active and inactive are the calls of the source. No cut-off for these calls is given here.

Columns and labels:
[1] = Inhibition of cholesterol uptake in human HepG2 cells at 100 uM relative to control; format: functional
[2] = Inhibition of cholesterol uptake in human HepG2 cells at 75 uM relative to control; format: functional
[3] = Inhibition of cholesterol uptake in human HepG2 cells at 50 uM relative to control; format: functional
[4] = Inhibition of cholesterol uptake in human HepG2 cells at 25 uM relative to control; format: functional
[5] = Inhibition of cholesterol uptake in human HepG2 cells at 12.5 uM relative to control; format: functional
[6] = Inhibition of cholesterol uptake in human Caco-2 cells at 100 uM relative to control; format: functional
[7] = Inhibition of cholesterol uptake in human Caco-2 cells at 75 uM relative to control; format: functional
[8] = Inhibition of cholesterol uptake in human Caco-2 cells at 50 uM relative to control; format: functional
[9] = Inhibition of cholesterol uptake in human Caco-2 cells at 25 uM relative to control; format: functional
[10] = Inhibition of cholesterol uptake in human Caco-2 cells at 12.5 uM relative to control; format: functional
[11] = biological target: T1, NPC1-like intracellular cholesterol transporter 1 (Homo sapiens) (UniProt Q9UHC9); test: Inhibition of NPC1L1in human HepG2 cells assessed as reduction in intracellular cholesterol content incubated for 60 mins by filipin dye based confocal microscopy analysis; format: cell-based
T1 sequence (whole entry): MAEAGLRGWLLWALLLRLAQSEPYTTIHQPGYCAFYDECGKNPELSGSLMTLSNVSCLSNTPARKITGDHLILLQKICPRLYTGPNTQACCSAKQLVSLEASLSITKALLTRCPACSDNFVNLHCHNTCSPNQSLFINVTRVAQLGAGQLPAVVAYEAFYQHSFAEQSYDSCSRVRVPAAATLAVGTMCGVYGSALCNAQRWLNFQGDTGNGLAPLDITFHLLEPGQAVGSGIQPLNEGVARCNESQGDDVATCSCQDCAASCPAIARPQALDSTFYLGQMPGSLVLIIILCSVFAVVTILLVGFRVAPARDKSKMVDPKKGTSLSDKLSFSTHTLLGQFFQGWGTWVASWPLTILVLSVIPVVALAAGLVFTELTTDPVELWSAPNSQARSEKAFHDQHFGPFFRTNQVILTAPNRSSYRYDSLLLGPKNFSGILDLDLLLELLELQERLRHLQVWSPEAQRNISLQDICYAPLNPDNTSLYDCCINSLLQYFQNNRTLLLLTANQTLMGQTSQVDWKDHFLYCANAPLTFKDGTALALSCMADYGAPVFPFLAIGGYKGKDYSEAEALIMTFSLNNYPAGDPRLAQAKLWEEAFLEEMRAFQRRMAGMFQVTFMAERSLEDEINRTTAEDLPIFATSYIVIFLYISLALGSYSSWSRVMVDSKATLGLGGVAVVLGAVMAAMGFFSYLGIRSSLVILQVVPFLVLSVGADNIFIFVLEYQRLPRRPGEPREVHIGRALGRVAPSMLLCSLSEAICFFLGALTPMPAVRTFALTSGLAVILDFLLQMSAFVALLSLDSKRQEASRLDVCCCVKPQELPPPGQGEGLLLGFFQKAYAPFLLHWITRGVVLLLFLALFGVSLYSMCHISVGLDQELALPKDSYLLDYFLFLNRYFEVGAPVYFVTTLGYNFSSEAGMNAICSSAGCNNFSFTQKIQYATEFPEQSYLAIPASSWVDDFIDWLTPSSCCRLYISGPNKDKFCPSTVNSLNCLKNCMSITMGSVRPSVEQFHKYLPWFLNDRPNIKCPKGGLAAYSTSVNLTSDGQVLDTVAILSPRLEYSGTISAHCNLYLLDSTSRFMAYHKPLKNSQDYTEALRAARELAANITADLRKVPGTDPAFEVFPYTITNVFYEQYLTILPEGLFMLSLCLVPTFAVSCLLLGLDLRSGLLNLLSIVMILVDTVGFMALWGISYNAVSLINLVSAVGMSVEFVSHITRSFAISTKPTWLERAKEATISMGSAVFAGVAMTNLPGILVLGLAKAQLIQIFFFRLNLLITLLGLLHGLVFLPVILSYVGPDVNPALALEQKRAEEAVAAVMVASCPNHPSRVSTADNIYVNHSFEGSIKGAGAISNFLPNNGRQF

[12] = biological target: T1, NPC1-like intracellular cholesterol transporter 1 (Homo sapiens); test: Inhibition of NPC1L1in human HepG2 cells assessed as increase in intracellular cholesterol content incubated for 60 mins by filipin dye based confocal microscopy analysis; format: cell-based
[13] = biological target: T1, NPC1-like intracellular cholesterol transporter 1 (Homo sapiens); test: […] inhibition of NPC1L1 (unknown origin) assessed as decrease in Km at upto 150 uM by Lineweaver-burk double inverse plot analysis
[14] = biological target: T1, NPC1-like intracellular cholesterol transporter 1 (Homo sapiens); test: […] inhibition of NPC1L1 (unknown origin) assessed as decrease in Vmax at upto 150 uM by Lineweaver-burk double inverse plot analysis
HepG2 = test: Effect on NPC1L1 expression in human HepG2 cells at 1 to 100 uM incubated for 24 hrs; format: functional, cell-based; details: dose 1-100 µM

Row | Structure (SMILES) | inhibition at 100 µM [1] [%] | inhibition at 75 µM [2] [%] | inhibition at 50 µM [3] [%] | inhibition at 25 µM [4] [%] | inhibition at 12.5 µM [5] [%] | inhibition at 100 µM [6] [%] | inhibition at 75 µM [7] [%] | inhibition at 50 µM [8] [%] | inhibition at 25 µM [9] [%] | inhibition at 12.5 µM [10] [%] | Activity [11] | Activity [12] | Activity [13] | Activity [14] | Activity (HepG2)
1 | Cc1cc(O)c2c(c1)C(=O)c1cc(O)cc(O)c1C2=O [EMODIN] | 27 | 31.3 | 33.6 | 41.6 | 52.6 | 29 | 28 | 32.3 | 39.6 | 44.3 | Active | Active | Active | Active | Active
2 | O=C1[C@H](CC[C@H](O)c2ccc(F)cc2)[C@@H](c2ccc(O)cc2)N1c1ccc(F)cc1 [EZETIMIBE] | 48.3 | – | – | – | – | 70 | – | – | – | – | inactive | Active | – | – | –
